What was measured:
[1] = tested on: control sera (pooled serum of ten healthy LUMC hospital workers; commercial negative donor pooled serum from the Dutch bloodbank); format: binding, human; set-up: Binding of Control serum LUMC to linear peptides / Binding of Control serum Blood-bank to linear peptides / Binding of Control serum LUMC to looped peptides / Binding of Control Serum Blood-Bank to Looped peptides / Binding of Control serum LUMC to linear peptides of the protein M of SARS-CoV Urbani / Binding of Control serum Blood-bank to linear peptides of the protein M of SARS-CoV Urbani / Binding of Control serum LUMC to looped peptides of the protein M of SARS-CoV Urbani / Binding of Control Serum Blood-Bank to Looped peptides of the protein M of SARS-CoV Urbani: unit not given here
[2] = tested on: recombinant human anti-SARS-CoV antibody 03-018; format: binding; set-up: Binding of antibody 03-018 to linear peptides of the N protein of SARS-CoV Urbani / Binding of antibody 03-018 to looped/cyclic peptides of the N protein of SARS-CoV Urbani: unit not given here
[3] = tested on: antibodies in sera from SARS patients (sera 1a, 1b, 2, 6, 37, 62, London, SARS-yellow, SARS-green); format: binding, human; set-up: Binding of serum 6 to linear peptides of protein X1 of SARS-CoV Urbani / Binding of serum 37 to linear peptides of protein X1 of SARS-CoV Urbani / Binding of serum 6 to looped/cyclic peptide (PEPSCAN-ELISA) / Binding of serum 37 to looped/cyclic peptide (PEPSCAN-ELISA) / Binding of serum 37 to looped/cyclic peptides of protein X1 of SARS-CoV Urbani / Binding of serum 6 to linear peptides of protein X2 / Binding of serum 37 to linear peptides of protein X2 / Binding of serum 37 to looped/cyclic peptides of protein X2 of SARS-CoV Urbani / Binding of serum 6 to linear peptides of protein M of SARS-CoV Urbani / Binding of serum 37 to linear peptides of protein M of SARS-CoV Urbani / Binding of serum 6 to looped/cyclic peptides of protein M of SARS-CoV Urbani / Binding of serum 37 to looped/cyclic peptides of protein M of SARS-CoV Urbani / Binding of serum 6 to linear peptides of protein X3 of SARS-CoV Urbani / Binding of serum 37 to linear peptides of protein X3 of SARS-CoV Urbani / Binding of serum 37 to looped/cyclic peptides of protein X3 of SARS-CoV Urbani / Binding of serum 6 to linear peptides of protein X4 of SARS-CoV Urbani / Binding of serum 37 to linear peptides of protein X4 of SARS-CoV Urbani / Binding of serum 37 to looped/cyclic peptides of protein X4 of SARS-CoV Urbani / Binding of serum 6 to linear peptides of protein X5 of SARS-CoV Urbani / Binding of serum 37 to linear peptides of protein X5 of SARS-CoV Urbani / Binding of serum 37 to looped/cyclic peptides of protein X5 of SARS-CoV Urbani / Binding of serum 6 to linear peptides of protein N of SARS-CoV Urbani / Binding of serum 37 to linear peptides of protein N of SARS-CoV Urbani / Binding of serum 6 to linear peptide (PEPSCAN-ELISA) / Binding of serum 1a to looped/cyclic peptides of protein N of SARS-CoV Urbani / Binding of serum 1b to looped/cyclic peptides of protein N of SARS-CoV Urbani / Binding of serum 2 to looped/cyclic peptides of protein N of SARS-CoV Urbani / Binding of serum 6 to looped/cyclic peptides of protein N of SARS-CoV Urbani / Binding of serum 37 to looped/cyclic peptides of protein N of SARS-CoV Urbani / Binding of serum 62 to looped/cyclic peptides of protein N of SARS-CoV Urbani / Binding of serum London to looped/cyclic peptides of protein N of SARS-CoV Urbani / Binding of serum SARS-green to looped/cyclic peptides of protein N of SARS-CoV Urbani: unit not given here
[4] = tested on: rabbit serum obtained by immunizing a rabbit with the SARS-CoV strain Frankfurt 1; format: binding; set-up: Binding of a rabbit serum to linear peptides / Binding of a rabbit serum to looped peptides / Rabbit serum linear peptides / Rabbit serum looped peptides / Binding of a rabbit serum to linear peptides of protein N of SARS-CoV Urbani (Rabbit serum linear peptides) / Binding of a rabbit serum to looped/cyclic peptides of protein N of SARS-CoV Urbani (Rabbit serum looped peptides): unit not given here

Sequence	Binding of Control Serum Blood-Bank to Looped peptides [1]	Binding of Control serum Blood-bank to linear peptides [1]	Binding of Control serum LUMC to linear peptides [1]	Binding of Control serum LUMC to looped peptides [1]	Binding of antibody 03-018 to linear peptides of the N protein of SARS-CoV Urbani [2]	Binding of antibody 03-018 to looped/cyclic peptides of the N protein of SARS-CoV Urbani [2]	Binding of serum 1a to looped/cyclic peptides of protein N of SARS-CoV Urbani [3]	Binding of serum 1b to looped/cyclic peptides of protein N of SARS-CoV Urbani [3]	Binding of serum 2 to looped/cyclic peptides of protein N of SARS-CoV Urbani [3]	Binding of serum 6 to looped/cyclic peptides of protein N of SARS-CoV Urbani [3]	Binding of serum 37 to looped/cyclic peptides of protein N of SARS-CoV Urbani [3]	Binding of serum 62 to looped/cyclic peptides of protein N of SARS-CoV Urbani [3]	Binding of serum London to looped/cyclic peptides of protein N of SARS-CoV Urbani [3]	Binding of serum SARS-green to looped/cyclic peptides of protein N of SARS-CoV Urbani [3]	Binding of serum SARS-yellow to looped/cyclic peptides of protein N of SARS-CoV Urbani [3]	Binding of a rabbit serum to linear peptides of protein N of SARS-CoV Urbani (Rabbit serum linear peptides) [4]	Binding of a rabbit serum to looped/cyclic peptides of protein N of SARS-CoV Urbani (Rabbit serum looped peptides) [4]	Binding of serum 1a to linear peptides of protein N of SARS-CoV Urbani [3]	Binding of serum 1b to linear peptides of protein N of SARS-CoV Urbani [3]	Binding of serum 2 to linear peptides of protein N of SARS-CoV Urbani [3]	further results
TQGNFGDQDLIRQGT	0.8	0.8	0.9	0.8	0.1	0.2	0.4	0.3	0.4	0.2	0.7	0.7	0.5	0.5	0.6	0.2	0.6	–	–	–	Binding of serum 1a to linear peptide (PEPSCAN-ELISA) [3]: 0.3; Binding of serum 1b to linear peptide (PEPSCAN-ELISA) [3]: 0.2; Binding of serum 2 to linear peptide (PEPSCAN-ELISA) [3]: 0.2; Binding of serum 6 to linear peptide (PEPSCAN-ELISA) [3]: 0.2; Binding of serum 37 to linear peptide (PEPSCAN-ELISA) [3]: 0.9; Binding of serum 62 to linear peptide (PEPSCAN-ELISA) [3]: 0.8; Binding of serum London to linear peptide (PEPSCAN-ELISA) [3]: 0.6; Binding of serum SARS-green to linear peptide (PEPSCAN-ELISA) [3]: 0.6; Binding of serum SARS-yellow to linear peptide (PEPSCAN-ELISA) [3]: 0.6
TQHGKEELRFPRGQG	0.6	0.9	0.8	0.6	0.1	0.2	0.3	0.2	0.3	0.2	0.5	0.3	0.4	0.2	0.4	0.1	0.3	0.3	0.2	0.3	Binding of serum 6 to linear peptides of protein N of SARS-CoV Urbani [3]: 0.2; Binding of serum 37 to linear peptides of protein N of SARS-CoV Urbani [3]: 0.7; Binding of serum 62 to linear peptides of protein N of SARS-CoV Urbani [3]: 0.8; Binding of serum London to linear peptides of protein N of SARS-CoV Urbani [3]: 0.5; Binding of serum SARS-green to linear peptides of protein N of SARS-CoV Urbani [3]: 0.4; Binding of serum SARS-yellow to linear peptides of protein N of SARS-CoV Urbani [3]: 0.6
TRNPNNNAATVLQLP	0.8	0.7	0.8	0.7	0.1	0.2	0.4	0.3	0.7	0.3	0.6	0.5	0.5	0.8	0.5	0.1	0.5	0.3	0.1	0.3	Binding of serum 6 to linear peptides of protein N of SARS-CoV Urbani [3]: 0.2; Binding of serum 37 to linear peptides of protein N of SARS-CoV Urbani [3]: 0.6; Binding of serum 62 to linear peptides of protein N of SARS-CoV Urbani [3]: 0.7; Binding of serum London to linear peptides of protein N of SARS-CoV Urbani [3]: 0.5; Binding of serum SARS-green to linear peptides of protein N of SARS-CoV Urbani [3]: 0.3; Binding of serum SARS-yellow to linear peptides of protein N of SARS-CoV Urbani [3]: 0.7

Source: patent publication US20070128217A1 (priority 2003, published 2007)
